The text below walks through data of ChEMBL document CHEMBL5523671, “ω-(5-Phenyl-2H-tetrazol-2-yl)alkyl-substituted glycine amides and related compounds as inhibitors of the amine oxidase vascular adhesion protein-1 (VAP-1)” (Bioorg Med Chem, 2024).

Where only a bound is given, the exact number is not on record here.

Data set [1] deals with T1, VAP-1 (amine oxidase [copper-containing] 3) (Bos taurus, UniProt Q9TTK6).
T1 sequence (Q9TTK6 whole entry): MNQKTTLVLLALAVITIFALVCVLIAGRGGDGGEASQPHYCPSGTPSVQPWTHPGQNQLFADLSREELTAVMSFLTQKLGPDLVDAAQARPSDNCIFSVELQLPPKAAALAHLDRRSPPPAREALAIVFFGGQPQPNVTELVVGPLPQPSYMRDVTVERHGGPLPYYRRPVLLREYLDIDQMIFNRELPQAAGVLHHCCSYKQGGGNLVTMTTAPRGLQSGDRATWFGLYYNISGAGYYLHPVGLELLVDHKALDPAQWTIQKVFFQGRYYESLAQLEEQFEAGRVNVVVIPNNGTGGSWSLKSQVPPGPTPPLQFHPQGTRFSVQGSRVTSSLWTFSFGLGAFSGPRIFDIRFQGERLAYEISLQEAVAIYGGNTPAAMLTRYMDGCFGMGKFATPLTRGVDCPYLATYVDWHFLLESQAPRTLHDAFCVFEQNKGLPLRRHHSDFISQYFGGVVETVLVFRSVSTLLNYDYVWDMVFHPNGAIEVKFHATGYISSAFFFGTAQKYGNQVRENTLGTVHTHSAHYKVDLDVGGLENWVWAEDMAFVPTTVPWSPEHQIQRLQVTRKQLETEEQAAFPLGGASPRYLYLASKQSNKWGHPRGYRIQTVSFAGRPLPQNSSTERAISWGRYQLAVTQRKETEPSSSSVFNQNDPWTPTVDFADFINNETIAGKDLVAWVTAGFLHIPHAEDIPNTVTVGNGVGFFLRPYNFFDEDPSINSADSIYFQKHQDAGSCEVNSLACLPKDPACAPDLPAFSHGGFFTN
In words: Stability of compound assessed as bovine plasma VAP-1 mediated drug degradation by measuring parent compound remaining at 10 uM incubated for 30 mins by HPLC-MS analysis. The class given is ADME, cell-free. To be noted: cattle, bovine plasma VAP-1 (amine oxidase [copper-containing] 3), read-out: Stability.

Data set [2] deals with T2, Amine oxidase [copper-containing] 3 (Bos taurus, UniProt Q9TTK6).
T2 sequence (Q9TTK6 whole entry): T1 sequence (Q9TTK6 whole entry)
The data set can be described thus: Stability of compound assessed as bovine plasma VAP-1 mediated drug degradation by measuring formation of aldehyde metabolite at 1 to 10 uM incubated for 60 to 120 mins by HPLC-MS analysis. The class given is ADME, cell-free. The following applies: cattle, dose lower 1 µM, time lower 60 min, dose upper 10 µM, time upper 120 min.

Data set [3] concerns the target T1, VAP-1 (amine oxidase [copper-containing] 3). In words: Stability of compound assessed as bovine plasma VAP-1 mediated drug degradation by measuring parent compound remaining at 1 uM incubated for 120 mins by HPLC-MS analysis. The class given is ADME, cell-free. The following applies: cattle, bovine plasma VAP-1 (amine oxidase [copper-containing] 3), read-out: Stability.

Data set [4] shares this target. In words: Stability of compound assessed as bovine plasma VAP-1 mediated drug degradation by measuring parent compound remaining at 1 uM incubated for 30 mins by HPLC-MS analysis. Format: ADME, cell-free. The following applies: cattle, bovine plasma VAP-1 (amine oxidase [copper-containing] 3), read-out: Stability.
Data set [5] shares this target. In words: Stability of compound assessed as bovine plasma VAP-1 mediated drug degradation by measuring parent compound remaining at 1 uM incubated for 60 mins by HPLC-MS analysis. The class given is ADME, cell-free. To be noted: cattle, bovine plasma VAP-1 (amine oxidase [copper-containing] 3), read-out: Stability.
The target is the same in data set [6]. In words: Stability of compound assessed as bovine plasma VAP-1 mediated drug degradation by measuring parent compound remaining at 10 uM incubated for 15 mins by HPLC-MS analysis. To be noted: cattle, bovine plasma VAP-1 (amine oxidase [copper-containing] 3), read-out: Stability. Format: ADME, cell-free.
Data set [7] shares this target. In words: Stability of compound assessed as bovine plasma VAP-1 mediated drug degradation by measuring parent compound remaining at 1 uM incubated for 15 mins by HPLC-MS analysis. Format: ADME, cell-free. The following applies: cattle, bovine plasma VAP-1 (amine oxidase [copper-containing] 3), read-out: Stability.
The target is the same in data set [8]. In words: Stability of compound assessed as bovine plasma VAP-1 mediated drug degradation by measuring parent compound remaining at 10 uM incubated for 120 mins by HPLC-MS analysis. Format: ADME, cell-free. To be noted: cattle, bovine plasma VAP-1 (amine oxidase [copper-containing] 3), read-out: Stability.
Data set [9] can be described thus: Selectivity index, ratio of IC50 for human plasma VAP-1 to IC50 for bovine plasma VAP-1.
Data set [10] can be described thus: Selectivity index, ratio of IC50 for porcine kidney DAO to IC50 for bovine plasma VAP-1.
Data set [11] concerns the target T3, Amine oxidase [copper-containing] 3 (Homo sapiens) (UniProt Q16853).
T3 sequence (whole entry): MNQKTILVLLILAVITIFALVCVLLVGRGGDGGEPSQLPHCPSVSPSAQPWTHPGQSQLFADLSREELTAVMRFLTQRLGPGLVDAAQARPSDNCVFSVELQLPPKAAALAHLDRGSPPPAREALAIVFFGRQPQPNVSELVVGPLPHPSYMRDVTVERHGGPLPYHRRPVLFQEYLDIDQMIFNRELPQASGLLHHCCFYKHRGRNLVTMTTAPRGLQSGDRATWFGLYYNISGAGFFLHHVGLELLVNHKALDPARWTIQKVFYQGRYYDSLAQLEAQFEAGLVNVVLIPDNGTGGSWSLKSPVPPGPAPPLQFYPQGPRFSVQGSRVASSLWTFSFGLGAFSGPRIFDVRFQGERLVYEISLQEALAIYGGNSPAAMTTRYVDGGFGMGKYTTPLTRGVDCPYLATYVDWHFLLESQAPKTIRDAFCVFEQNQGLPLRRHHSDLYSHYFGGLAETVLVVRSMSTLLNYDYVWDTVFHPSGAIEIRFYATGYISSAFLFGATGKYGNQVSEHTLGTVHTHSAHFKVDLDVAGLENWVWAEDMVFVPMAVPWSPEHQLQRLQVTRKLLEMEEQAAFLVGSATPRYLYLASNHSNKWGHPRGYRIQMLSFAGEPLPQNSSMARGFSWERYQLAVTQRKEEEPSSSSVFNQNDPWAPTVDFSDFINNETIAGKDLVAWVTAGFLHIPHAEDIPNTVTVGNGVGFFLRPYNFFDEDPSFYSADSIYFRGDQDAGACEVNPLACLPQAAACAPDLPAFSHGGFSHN
In words: Inhibition of human plasma VAP-1 using 6-(5-Pheny1-2H-tetrazol-2-yl)hexan-1-amine as substrate at 100 uM preincubated with enzyme for 15 mins followed by substrate addition measured after 120 mins by UV-HPLC analysis relative to control. The class given is cell-free. The following applies: time 135.0 min.

Data set [12] deals with T4, Amine oxidase [copper-containing] 3 (Homo sapiens, UniProt Q16853).
T4 sequence (Q16853 whole entry): T3 sequence (whole entry)
In words: Inhibition of human plasma VAP-1 using 6-(5-Pheny1-2H-tetrazol-2-yl)hexan-1-amine as substrate preincubated with enzyme for 15 mins followed by substrate addition measured after 120 mins by UV-HPLC analysis. The class given is cell-free.

The target of data set [13] is T1, VAP-1 (amine oxidase [copper-containing] 3). In words: Stability of compound assessed as bovine plasma VAP-1 mediated drug degradation by measuring parent compound remaining at 10 uM incubated for 60 mins by HPLC-MS analysis. The class given is ADME, cell-free. To be noted: cattle, bovine plasma VAP-1 (amine oxidase [copper-containing] 3), read-out: Stability.

Data set [14] has as its target T2, Amine oxidase [copper-containing] 3. The data set can be described thus: Inhibition of bovine plasma VAP-1 using 6-(5-Pheny1-2H-tetrazol-2-yl)hexan-1-amine as substrate measured after 30 mins by UV-HPLC analysis. Format: cell-free.
Data set [15] shares this target. In words: Inhibition of bovine plasma VAP-1 using 6-(5-Pheny1-2H-tetrazol-2-yl)hexan-1-amine as substrate preincubated with enzyme for 15 mins followed by substrate addition measured after 30 mins by UV-HPLC analysis. Format: cell-free.
For data set [16], the target named is T3, Amine oxidase [copper-containing] 3 (Homo sapiens). The data set can be described thus: Inhibition of human plasma VAP-1 using 6-(5-Pheny1-2H-tetrazol-2-yl)hexan-1-amine as substrate at 10 uM preincubated with enzyme for 15 mins followed by substrate addition measured after 120 mins by UV-HPLC analysis relative to control. Format: cell-free. To be noted: time 135.0 min.

The target in data set [17] is Amine oxidase [copper-containing] 1 (diamine oxidase, Sus scrofa) (UniProt Q9TRC7). In words: Inhibition of porcine kidney DAO using 6-(5-phenyltetrazol-2-yl)hexan-1-amine as substrate at 10 uM preincubated with enzyme for 15 mins followed by substrate addition measured after 30 mins by UV-HPLC analysis relative to control. To be noted: time 45.0 min.
Amine oxidase [copper-containing] 1 (diamine oxidase, Sus scrofa), sequence (Q9TRC7 whole entry, looked up): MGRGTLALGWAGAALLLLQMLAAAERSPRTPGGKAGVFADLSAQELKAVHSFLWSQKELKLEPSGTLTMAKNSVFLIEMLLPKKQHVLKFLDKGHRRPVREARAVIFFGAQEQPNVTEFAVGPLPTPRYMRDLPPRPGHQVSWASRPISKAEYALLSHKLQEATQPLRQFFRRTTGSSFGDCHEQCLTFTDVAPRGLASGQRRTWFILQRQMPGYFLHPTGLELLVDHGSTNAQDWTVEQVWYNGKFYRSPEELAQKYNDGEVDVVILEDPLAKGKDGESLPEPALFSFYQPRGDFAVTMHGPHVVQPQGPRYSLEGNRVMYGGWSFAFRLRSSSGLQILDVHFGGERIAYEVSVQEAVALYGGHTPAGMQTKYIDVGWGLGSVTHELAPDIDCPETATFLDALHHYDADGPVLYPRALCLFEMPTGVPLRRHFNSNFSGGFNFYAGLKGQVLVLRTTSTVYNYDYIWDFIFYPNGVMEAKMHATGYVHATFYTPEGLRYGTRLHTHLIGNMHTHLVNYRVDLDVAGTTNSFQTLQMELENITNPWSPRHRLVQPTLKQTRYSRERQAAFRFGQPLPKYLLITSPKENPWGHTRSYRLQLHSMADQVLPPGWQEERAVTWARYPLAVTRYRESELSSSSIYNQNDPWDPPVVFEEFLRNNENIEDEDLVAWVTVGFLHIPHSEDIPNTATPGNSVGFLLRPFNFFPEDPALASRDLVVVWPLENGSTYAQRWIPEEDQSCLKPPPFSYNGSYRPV

Take `Cl.N#Cc1ccc(-c2nnn(Cc3cccc(CNC(=O)CN)c3)n2)cc1`: the remaining at 0.5 h, 10 µM in data set [1] amounted to 95%. Moreover, the Stability result in [2] was “Stable”. Further, in data set [3], the remaining at 2 h, 1 µM was below 5%. Also, the remaining at 0.5 h, 1 µM in data set [4] turned out to be 49%. In addition, the remaining at 1 h, 1 µM in data set [5] is below 5%. Also, the remaining at 0.25 h, 10 µM in data set [6] stood at 93%. Further, the remaining at 0.25 h, 1 µM in data set [7] was found to be 74%. For the same compound, in data set [8], the remaining at 2 h, 10 µM amounted to 81%. In addition, the results for the Ratio IC50 in data set [9] and in data set [10] were 2 and 50, respectively.

For the compound `NCC(=O)NCCCCCCn1nnc(-c2ccccc2)n1`, in data set [1], the remaining at 0.5 h, 10 µM was 58%. This compound also came in with an inhibition in data set [11] of 23%. The compound further had an IC50 in [12] above 100000 nM. In addition, the Stability entry in [2] is “Unstable”. Besides, the remaining at 0.25 h, 10 µM in data set [6] is 80%. In addition, in data set [8], the remaining at 2 h, 10 µM is below 5%.

On to `Cl.NCC(=O)NCc1cccc(Cn2nnc(-c3ccccc3)n2)c1`, for which the remaining at 0.5 h, 10 µM in [1] was above 95%. For the same compound, the IC50 in data set [12] was 2100 nM; in data set [14] it was 370 nM; in data set [15], 160 nM. Moreover, the Stability result in data set [2] was “Stable”. In data set [3], the remaining at 2 h, 1 µM was below 5%. In addition, in data set [13], the remaining at 1 h, 10 µM was found to be 93%. Further, the remaining at 0.5 h, 1 µM in data set [4] came out at 47%. The remaining at 1 h, 1 µM in [5] was below 5%. The remaining at 0.25 h, 10 µM in data set [6] is above 95%. The remaining at 0.25 h, 1 µM in [7] was 73%. For the same compound, the remaining at 2 h, 10 µM in data set [8] turned out to be 84%. Moreover, the Ratio IC50 was 2 in data set [9] and 50 in data set [10].

As for `N#Cc1ccc(-c2nnn(CCCCCCNC(=O)CN)n2)cc1`, the remaining at 0.5 h, 10 µM in data set [1] came to 79%. The compound also had an IC50 in [12] of 32000 nM. In addition, in data set [2], the Stability result was “Unstable”. Besides, in data set [16], the inhibition was 17%. The remaining at 0.25 h, 10 µM in data set [6] was 85%. The remaining at 2 h, 10 µM in data set [8] is 29%. For the same compound, the Ratio IC50 in data set [9] was found to be 2.

Turning to `CC(C)(C)NC(=O)c1ccc(OC/C(=C/F)CN)cc1`, in data set [1], the remaining at 0.5 h, 10 µM is above 95%. Further, the remaining at 2 h, 1 µM in [3] came to 90%. Besides, the remaining at 1 h, 10 µM in data set [13] was above 95%. Further, in data set [4], the remaining at 0.5 h, 1 µM was above 95%. In addition, in data set [5], the remaining at 1 h, 1 µM was above 95%. Besides, the remaining at 0.25 h, 10 µM in data set [6] was above 95%. Besides, the IC50 in [14] is 1000 nM; in data set [15], 27 nM. Moreover, the remaining at 0.25 h, 1 µM in data set [7] is above 95%. In addition, the remaining at 2 h, 10 µM in data set [8] is above 95%.

In the case of `NCC(=O)NCc1cccc(-c2ccccc2)c1`, the remaining at 0.5 h, 10 µM in [1] was 85%. Also, the Stability entry in [2] is “Unstable”. For the same compound, the remaining at 1 h, 10 µM in [13] amounted to 66%. For the same compound, the remaining at 0.25 h, 10 µM in data set [6] turned out to be 92%. Moreover, in data set [8], the remaining at 2 h, 10 µM was found to be 23%. Further, the inhibition in data set [17] came to 39%.

As usually defined, the inhibition is how much of the control response was suppressed. The IC50 is the point on the concentration scale where inhibition reaches its midpoint. Low values mean greater potency, high ones weaker potency.
